Experimental data: patent US20240327364A1, “THERAPEUTIC TARGETING OF GPR68 TO INDUCE FERROPTOSIS” (University Of Maryland, Baltimore, priority 2023, published 2024)

How the values were obtained:
zebrafish embryo = experiment: Zebrafish embryo phenotype; assay type: in vivo; details: 10 uM
Method: A chemical screen for small molecules that perturb embryonic development (dorsoventral axis) in zebrafish was performed as previously described (see Chen et al., 2009; Hao et al., 2013; Williams et al., 2015; Yu et al., 2008)). Briefly, pairs of WT zebrafish were mated, and fertilized eggs were arrayed in 96-well microtiter plates (5 embryos/well) containing […] E3 water. At 4 hours post fertilization (pf), a small molecule library from Vanderbilt High Throughput Screening Facility was added to each well to a final concentration of 10 μM. Embryos were incubated at 28.5 C until 24 and 48 hours pf, when they were examined for gross morphologic changes indicative of reproducible embryonic defects (dorsalization of the embryonic axis). A total of 30,000 compounds were screened. To discover novel small molecule modulators of embryonic development an unbiased screen of ˜30,000 small molecules was conducted, in which the compounds were assayed for their ability to induce phenotypic changes in the morphology of zebrafish. Further information on these assays can be found in Hao et al., 2013 and Williams et al., 2015. […] This compound was identified based on the phenotype of aberrant pigmentation. Compare FIG. 2B and FIG. 2C, which show a dorsal view of a representative DMSO vehicle control-treated zebrafish embryo at 48 hours pf and a dorsal view of a representative OGM1 (10 uM)-treated zebrafish embryo at 48 hours pf. […] Since GPCRs represent >30% of targets for FDA-approved small molecules and are known to modulate cell migration, activity against 158 GPCRs was assessed based on their chemical structures. GPCRs (158) were tested for agonist and antagonist activity at 10 μM. […] Chemical segregation analysis of zebrafish phenotype was conducted to further identify the inhibitory activity responsible for the zebrafish phenotype. […] The identities of the R groups in Formula A are shown below in Table 5.

[1] = target: T1, ABL1(T315I)-phosphorylated (Homo sapiens, UniProt P00519, T315I); experiment: KinomeScan; assay type: binding; details: read-out: % Control
T1 construct: purchased DiscoveRx

AMPK-alpha1 = target: T2, AMPK-alpha1 (Homo sapiens, UniProt Q13131); experiment: KinomeScan; assay type: binding; details: read-out: % Control
T2 construct: purchased DiscoveRx (Fremont, CA)

ANKK1 = target: T3, ANKK1 (Homo sapiens, UniProt Q8NFD2); experiment: KinomeScan; assay type: binding; details: read-out: % Control
T3 construct: purchased DiscoveRx (Fremont, CA)

BMPR1A = target: T4, BMPR1A (Homo sapiens, UniProt P36894); experiment: KinomeScan; assay type: binding; details: read-out: % Control
T4 construct: purchased DiscoveRx (Fremont, CA)

CDK4-cyclinD1 = target: T5, CDK4-cyclinD1 (Homo sapiens, UniProt P11802); experiment: KinomeScan; assay type: binding; details: read-out: % Control
T5 construct: purchased DiscoveRx (KinomeScan service)

DAPK3 = target: T6, DAPK3 (Homo sapiens, UniProt O43293); experiment: KinomeScan; assay type: binding; details: read-out: % Control
T6 construct: purchased DiscoveRx (Fremont, CA), KinomeScan service

DCAMKL3 = target: T7, DCAMKL3 (Homo sapiens, UniProt Q9C098); experiment: KinomeScan; assay type: binding; details: read-out: % Control
T7 construct: purchased DiscoveRx (Fremont, CA), KinomeScan service

DMPK2 = target: T8, DMPK2 (Homo sapiens, UniProt Q6DT37); experiment: KinomeScan; assay type: binding; details: read-out: % Control
T8 construct: purchased DiscoveRx (Fremont, CA), KinomeScan service

EGFR = target: T9, EGFR (Homo sapiens, UniProt P00533); experiment: KinomeScan; assay type: binding; details: read-out: % Control
T9 construct: purchased DiscoveRx (Fremont, CA), KinomeScan service

FAK = target: T10, FAK (Homo sapiens, UniProt Q05397); experiment: KinomeScan; assay type: binding; details: read-out: % Control
T10 construct: purchased DiscoveRx (Fremont, CA)

FGFR4 = target: T11, FGFR4 (Homo sapiens, UniProt P22455); experiment: KinomeScan; assay type: binding; details: read-out: % Control
T11 construct: purchased DiscoveRx (Fremont, CA)

FLT3 = target: T12, FLT3 (Homo sapiens, UniProt P36888); experiment: KinomeScan; assay type: binding; details: read-out: % Control
T12 construct: purchased DiscoveRx (Fremont, CA)

MAP4K3 = target: T13, MAP4K3 (Homo sapiens, UniProt Q8IVH8); experiment: KinomeScan; assay type: binding; details: read-out: % Control
T13 construct: purchased DiscoveRx (Fremont, CA)

MARK4 = target: T14, MARK4 (Homo sapiens, UniProt Q96L34); experiment: KinomeScan; assay type: binding; details: read-out: % Control
T14 construct: purchased DiscoveRx (Fremont, CA)

MEK3 = target: T15, MEK3 (Homo sapiens, UniProt P46734); experiment: KinomeScan; assay type: binding; details: read-out: % Control
T15 construct: purchased DiscoveRx (Fremont, CA)

MYLK = target: T16, MYLK (Homo sapiens, UniProt Q15746); experiment: KinomeScan; assay type: binding; details: read-out: % Control
T16 construct: purchased DiscoveRx

PIPSK1C = target: T17, PIPSK1C (Homo sapiens, UniProt O60331); experiment: KinomeScan; assay type: binding; details: read-out: % Control
T17 construct: purchased DiscoveRx (Fremont, CA)

PRKCD = target: T18, PRKCD (Homo sapiens, UniProt Q05655); experiment: KinomeScan; assay type: binding; details: read-out: % Control
T18 construct: purchased DiscoveRx (Fremont, CA)

TBK1 = target: T19, TBK1 (Homo sapiens, UniProt Q9UHD2); experiment: KinomeScan; assay type: binding; details: read-out: % Control
T19 construct: purchased DiscoveRx (Fremont, CA)

CB1 = target: T20, CB1 (Homo sapiens, UniProt P21554); experiment: GPCR Profiler; assay type: cell-based
T20 construct: host or cells: Chem-1 cells with promiscuous Gα15

CCR4 = target: T21, CCR4 (Homo sapiens, UniProt P51679); experiment: GPCR Profiler; assay type: cell-based
T21 construct: host or cells: Chem-1 cells with Gα15

FP = target: T22, FP (Homo sapiens, UniProt P43088); experiment: GPCR Profiler; assay type: cell-based
T22 construct: host or cells: Chem-1 cells expressing Gα15

FPR1 = target: T23, FPR1 (Homo sapiens, UniProt P21462); experiment: GPCR Profiler; assay type: cell-based
T23 construct: host or cells: Chem-1 cells expressing Gα15

M2 = target: T24, M2 (Homo sapiens, UniProt P08172); experiment: GPCR Profiler; assay type: cell-based
T24 construct: host or cells: Chem-1 cells with promiscuous Gα15

MrgD = target: T25, MrgD (Homo sapiens, UniProt Q8TDS7); experiment: GPCR Profiler; assay type: cell-based
T25 construct: host or cells: Chem-1 cells expressing Gα15

PTH1 = target: T26, PTH1 (Homo sapiens, UniProt Q03431); experiment: GPCR Profiler; assay type: cell-based
T26 construct: host or cells: Chem-1 cells with Gα15

Trypsin activated PARS = experiment: GPCR Profiler; assay type: cell-based

T24 sequence (P08172 whole entry): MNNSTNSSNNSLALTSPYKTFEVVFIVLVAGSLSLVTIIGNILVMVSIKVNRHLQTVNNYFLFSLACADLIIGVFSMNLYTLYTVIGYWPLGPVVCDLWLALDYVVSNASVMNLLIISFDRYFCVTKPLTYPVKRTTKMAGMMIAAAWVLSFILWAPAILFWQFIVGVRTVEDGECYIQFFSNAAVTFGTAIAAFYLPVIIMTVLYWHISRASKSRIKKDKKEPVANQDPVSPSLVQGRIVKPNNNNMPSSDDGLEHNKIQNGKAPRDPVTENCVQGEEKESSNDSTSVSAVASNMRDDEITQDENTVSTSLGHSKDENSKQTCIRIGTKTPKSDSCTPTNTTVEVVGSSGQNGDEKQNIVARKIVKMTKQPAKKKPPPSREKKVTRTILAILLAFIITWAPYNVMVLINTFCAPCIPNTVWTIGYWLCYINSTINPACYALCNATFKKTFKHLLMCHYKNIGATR
T25 sequence (Q8TDS7 whole entry, species assumed): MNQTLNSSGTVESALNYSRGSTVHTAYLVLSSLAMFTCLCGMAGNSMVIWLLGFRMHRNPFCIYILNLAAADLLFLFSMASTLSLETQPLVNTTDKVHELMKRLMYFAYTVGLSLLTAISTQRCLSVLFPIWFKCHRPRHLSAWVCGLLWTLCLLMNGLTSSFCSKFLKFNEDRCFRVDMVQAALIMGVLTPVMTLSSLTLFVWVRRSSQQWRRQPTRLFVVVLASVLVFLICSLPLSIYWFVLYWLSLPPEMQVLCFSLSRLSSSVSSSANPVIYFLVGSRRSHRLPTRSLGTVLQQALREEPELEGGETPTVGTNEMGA
T26 sequence (Q03431 27-593): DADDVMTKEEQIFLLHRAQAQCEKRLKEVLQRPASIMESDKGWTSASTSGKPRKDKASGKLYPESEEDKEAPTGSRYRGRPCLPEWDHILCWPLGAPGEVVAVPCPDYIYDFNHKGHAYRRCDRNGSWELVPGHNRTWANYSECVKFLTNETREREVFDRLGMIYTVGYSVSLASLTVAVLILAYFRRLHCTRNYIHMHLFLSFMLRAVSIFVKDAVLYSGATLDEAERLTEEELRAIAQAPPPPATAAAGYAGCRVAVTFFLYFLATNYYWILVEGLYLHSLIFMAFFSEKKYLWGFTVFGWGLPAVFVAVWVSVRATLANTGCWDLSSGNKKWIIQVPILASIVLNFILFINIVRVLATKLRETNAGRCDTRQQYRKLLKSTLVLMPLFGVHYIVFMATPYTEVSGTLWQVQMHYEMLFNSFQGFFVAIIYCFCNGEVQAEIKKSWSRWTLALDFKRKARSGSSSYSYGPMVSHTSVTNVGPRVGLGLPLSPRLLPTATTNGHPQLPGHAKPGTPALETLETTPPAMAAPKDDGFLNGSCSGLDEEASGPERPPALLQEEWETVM
T21 sequence (P51679 whole entry): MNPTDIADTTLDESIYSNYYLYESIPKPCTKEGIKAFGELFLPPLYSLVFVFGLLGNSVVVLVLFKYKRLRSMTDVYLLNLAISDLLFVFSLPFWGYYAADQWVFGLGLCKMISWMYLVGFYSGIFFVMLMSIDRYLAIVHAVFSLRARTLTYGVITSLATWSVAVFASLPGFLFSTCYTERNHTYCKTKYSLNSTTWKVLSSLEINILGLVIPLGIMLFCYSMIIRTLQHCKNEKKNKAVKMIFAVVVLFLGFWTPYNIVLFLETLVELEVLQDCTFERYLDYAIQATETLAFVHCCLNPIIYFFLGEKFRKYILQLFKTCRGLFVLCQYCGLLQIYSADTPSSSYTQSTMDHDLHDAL
T22 sequence (P43088 whole entry): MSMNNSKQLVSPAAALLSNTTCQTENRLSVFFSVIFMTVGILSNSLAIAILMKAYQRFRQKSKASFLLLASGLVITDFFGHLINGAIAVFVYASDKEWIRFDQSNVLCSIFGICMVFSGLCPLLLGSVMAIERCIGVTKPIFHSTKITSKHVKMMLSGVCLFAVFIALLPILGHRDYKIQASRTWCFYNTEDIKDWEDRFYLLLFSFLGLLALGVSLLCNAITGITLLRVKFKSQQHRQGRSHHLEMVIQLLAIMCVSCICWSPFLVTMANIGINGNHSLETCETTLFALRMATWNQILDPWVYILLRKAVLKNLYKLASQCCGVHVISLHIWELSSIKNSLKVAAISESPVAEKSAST
T23 sequence (P21462 whole entry): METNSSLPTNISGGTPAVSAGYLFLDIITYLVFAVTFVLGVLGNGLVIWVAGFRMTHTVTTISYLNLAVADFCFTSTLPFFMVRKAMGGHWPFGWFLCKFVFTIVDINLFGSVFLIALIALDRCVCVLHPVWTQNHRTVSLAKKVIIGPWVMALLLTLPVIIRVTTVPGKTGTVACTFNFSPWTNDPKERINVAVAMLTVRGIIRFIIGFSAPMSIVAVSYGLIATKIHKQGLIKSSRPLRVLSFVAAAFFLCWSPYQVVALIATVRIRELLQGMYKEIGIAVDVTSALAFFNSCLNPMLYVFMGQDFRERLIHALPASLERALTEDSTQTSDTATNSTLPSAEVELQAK
T20 sequence (P21554 whole entry, species assumed): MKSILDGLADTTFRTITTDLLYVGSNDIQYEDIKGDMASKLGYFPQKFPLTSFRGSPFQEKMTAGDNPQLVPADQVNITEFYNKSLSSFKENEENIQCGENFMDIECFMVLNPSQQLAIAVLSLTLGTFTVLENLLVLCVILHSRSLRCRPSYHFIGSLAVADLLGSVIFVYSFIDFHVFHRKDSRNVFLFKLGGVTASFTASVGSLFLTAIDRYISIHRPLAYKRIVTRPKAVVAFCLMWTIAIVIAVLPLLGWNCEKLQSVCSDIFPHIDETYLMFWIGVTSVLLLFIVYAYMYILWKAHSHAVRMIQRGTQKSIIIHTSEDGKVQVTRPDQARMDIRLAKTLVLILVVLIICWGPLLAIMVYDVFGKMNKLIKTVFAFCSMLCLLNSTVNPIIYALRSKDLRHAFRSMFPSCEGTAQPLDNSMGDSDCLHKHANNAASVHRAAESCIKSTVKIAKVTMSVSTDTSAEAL
T19 sequence (Q9UHD2 whole entry): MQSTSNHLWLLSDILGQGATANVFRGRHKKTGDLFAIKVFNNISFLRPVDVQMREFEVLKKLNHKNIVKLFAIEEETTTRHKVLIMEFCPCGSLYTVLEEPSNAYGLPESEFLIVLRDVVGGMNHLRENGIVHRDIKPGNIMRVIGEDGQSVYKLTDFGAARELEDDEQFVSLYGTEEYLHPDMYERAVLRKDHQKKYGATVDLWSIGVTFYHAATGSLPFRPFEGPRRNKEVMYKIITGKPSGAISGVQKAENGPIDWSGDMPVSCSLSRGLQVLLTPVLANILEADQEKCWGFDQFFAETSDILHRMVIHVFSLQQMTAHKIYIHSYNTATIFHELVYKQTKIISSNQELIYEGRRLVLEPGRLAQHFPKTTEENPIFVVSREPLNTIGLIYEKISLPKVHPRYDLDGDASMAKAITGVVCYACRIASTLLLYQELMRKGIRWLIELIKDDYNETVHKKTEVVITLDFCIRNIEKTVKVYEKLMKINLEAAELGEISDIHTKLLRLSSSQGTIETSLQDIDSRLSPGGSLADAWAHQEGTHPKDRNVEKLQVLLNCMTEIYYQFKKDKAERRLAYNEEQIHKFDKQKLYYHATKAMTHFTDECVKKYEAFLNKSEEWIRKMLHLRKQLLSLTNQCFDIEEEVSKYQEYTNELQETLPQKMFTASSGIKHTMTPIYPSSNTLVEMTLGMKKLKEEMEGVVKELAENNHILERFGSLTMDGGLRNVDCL
T2 sequence (Q13131 whole entry): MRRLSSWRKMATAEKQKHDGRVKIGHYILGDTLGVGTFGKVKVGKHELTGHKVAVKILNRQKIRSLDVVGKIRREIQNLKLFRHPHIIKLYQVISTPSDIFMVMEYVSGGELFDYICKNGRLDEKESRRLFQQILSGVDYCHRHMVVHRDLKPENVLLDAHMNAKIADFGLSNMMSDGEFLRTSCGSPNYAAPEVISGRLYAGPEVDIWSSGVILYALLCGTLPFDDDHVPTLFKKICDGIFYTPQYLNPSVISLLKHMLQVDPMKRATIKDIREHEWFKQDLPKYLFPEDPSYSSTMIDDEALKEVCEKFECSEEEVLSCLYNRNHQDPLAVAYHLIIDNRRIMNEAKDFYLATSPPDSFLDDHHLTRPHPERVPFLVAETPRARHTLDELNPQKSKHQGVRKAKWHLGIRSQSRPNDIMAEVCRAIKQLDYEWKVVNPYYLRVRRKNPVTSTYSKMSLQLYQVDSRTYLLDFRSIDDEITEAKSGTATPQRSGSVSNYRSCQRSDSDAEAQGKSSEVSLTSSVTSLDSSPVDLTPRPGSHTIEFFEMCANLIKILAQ
T6 sequence (O43293 whole entry): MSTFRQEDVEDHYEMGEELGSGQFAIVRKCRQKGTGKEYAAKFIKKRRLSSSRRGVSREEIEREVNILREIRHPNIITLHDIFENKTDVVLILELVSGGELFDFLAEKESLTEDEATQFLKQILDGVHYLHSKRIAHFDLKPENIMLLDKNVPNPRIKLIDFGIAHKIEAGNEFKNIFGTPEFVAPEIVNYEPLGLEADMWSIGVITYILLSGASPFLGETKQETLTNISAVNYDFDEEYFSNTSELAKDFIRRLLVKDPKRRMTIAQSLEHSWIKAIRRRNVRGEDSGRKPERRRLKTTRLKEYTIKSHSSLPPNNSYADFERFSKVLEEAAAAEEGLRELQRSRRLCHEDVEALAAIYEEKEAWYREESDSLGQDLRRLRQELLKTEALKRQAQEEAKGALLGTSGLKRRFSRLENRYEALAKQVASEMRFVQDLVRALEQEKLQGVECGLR

CCc1ccc2c(c1)C1(NN=C(c3cccc4ccccc34)S1)C(=O)N2 (stereo not drawn) [OGM1, 5-ethyl-5′-naphthalen-1-ylspiro[1H-indole-3,2′-3H-1,3,4-thiadiazole]-2-one]
phenotypes induced (zebrafish embryo): reproducibly induced ventral curvature, wavy notochord, shortened body axis, craniofacial defects, and loss of retinal iridophores | remaining binding at 10 µM [1]: 72% | remaining binding at 10 µM (AMPK-alpha1): 100% | remaining binding at 10 µM (ANKK1): 100% | remaining binding at 10 µM (BMPR1A): 100% | remaining binding at 10 µM (CDK4-cyclinD1): 69% | remaining binding at 10 µM (DAPK3): 91% | remaining binding at 10 µM (DCAMKL3): 100% | remaining binding at 10 µM (DMPK2): 93% | remaining binding at 10 µM (EGFR): 100% | remaining binding at 10 µM (FAK): 88% | remaining binding at 10 µM (FGFR4): 100% | remaining binding at 10 µM (FLT3): 79% | remaining binding at 10 µM (MAP4K3): 100% | remaining binding at 10 µM (MARK4): 95% | remaining binding at 10 µM (MEK3): 100% | remaining binding at 10 µM (MYLK): 91% | remaining binding at 10 µM (PIPSK1C): 97% | remaining binding at 10 µM (PRKCD): 100% | remaining binding at 10 µM (TBK1): 90% | Antagonism (CB1; 10 uM): −6.8 | Agonism (CB1; 12.5 uM): −0.1 | Antagonism (CCR4; 10 uM): −4.1 | Agonism (CCR4; 12.5 uM): −0.7 | Antagonism (FP; 10 uM): 8.9 | Agonism (FP; 12.5 uM): 0.9 | Antagonism (FPR1; 10 uM): 14.3 | Agonism (FPR1; 12.5 uM): −0.2 | Antagonism (M2; 10 uM): 3.3 | Agonism (M2; 12.5 uM): −0.1 | Antagonism (MrgD; 10 uM): −2.2 | Agonism (MrgD; 12.5 uM): −0.1 | Antagonism (PTH1; 10 uM): 2.2 | Agonism (PTH1; 12.5 uM): 0.7 | Antagonism (Trypsin activated PARS; 10 uM): 18.2 | Agonism (Trypsin activated PARS; 12.5 uM): 0
